Experimental data reported in article PMC11880385 (Nature Communications, 2025).
Values after ≈ are worked out from the molar mass of the structure shown. “Also recorded” adds a separate entry of the source.

How the values were obtained:
[1] = test system: C. albicans Yck2 kinase domain; assay: biochemical; assay type: biochemical, Candida albicans; settings: Ratio of HsCK1α IC50 / CaYck2 IC50
[2] = molecular target: T1, C. albicans Yck2 kinase domain (Candida albicans, UniProt A0A1D8PKB4); assay: biochemical; assay type: biochemical; settings: for CaYck2 IC50: two-fold dose-response up to 1 µM, ATP 20 μM (Km)
T1 sequence (A0A1D8PKB4 37-345): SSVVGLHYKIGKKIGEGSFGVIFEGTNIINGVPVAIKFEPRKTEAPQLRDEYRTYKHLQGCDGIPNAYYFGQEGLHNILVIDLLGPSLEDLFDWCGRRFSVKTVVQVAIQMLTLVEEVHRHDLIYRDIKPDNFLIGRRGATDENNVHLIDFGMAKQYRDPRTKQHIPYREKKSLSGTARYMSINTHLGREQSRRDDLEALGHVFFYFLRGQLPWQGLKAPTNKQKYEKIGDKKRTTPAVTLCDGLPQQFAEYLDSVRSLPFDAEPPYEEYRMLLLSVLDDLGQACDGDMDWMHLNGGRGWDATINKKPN

[3] = Mouse liver microsomal stability assay; settings: mouse liver microsomes; for remaining at 0.5 h, 1 µM: mouse; for metabolic stability category: 30 minutes, 1 μM
human CK1α = human CK1α (Homo sapiens, UniProt P48729); assay: HsCK1α kinase inhibition assay; assay type: biochemical
Sequence of human CK1α (P48729 whole entry): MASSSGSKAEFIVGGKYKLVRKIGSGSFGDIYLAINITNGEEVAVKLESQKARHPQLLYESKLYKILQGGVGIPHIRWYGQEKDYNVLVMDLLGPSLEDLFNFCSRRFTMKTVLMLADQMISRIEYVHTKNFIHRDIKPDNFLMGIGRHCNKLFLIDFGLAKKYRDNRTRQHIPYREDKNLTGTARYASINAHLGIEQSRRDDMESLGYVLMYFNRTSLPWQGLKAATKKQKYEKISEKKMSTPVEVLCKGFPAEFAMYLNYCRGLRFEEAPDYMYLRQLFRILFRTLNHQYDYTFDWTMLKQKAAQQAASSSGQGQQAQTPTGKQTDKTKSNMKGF

C. albicans (CaSS1) = assay: C. albicans growth inhibition, two-fold dose-response assay; settings: for MIC80: Candida albicans, 48 h, read-out: C. albicans MIC80; for whole-cell antifungal activity against C. albicans: RPMI, 37 °C, 5% CO2
[4] = test system: C. albicans (FKS1^T1922C/FKS1^T1922C Eno1-GFP); assay: HepG2 / C. albicans co-culture: fungal burden by GFP fluorescence; settings: at or above 6.25 µM
[5] = test system: C. albicans (TEF1p-GFP) in J774A.1 cells; assay: Visualization of C. albicans filamentation in macrophages; settings: 4 h incubation; 0.94, 7.5 or 30 µM
[6] = test system: echinocandin-resistant C. albicans strain (DPL15; FKS1^T1922C/FKS1^T1922C); assay: Caspofungin potentiation dose-response assay in echinocandin-resistant strain; settings: sub-inhibitory caspofungin (3 µg/mL); YPD, 30 °C, 48 h
[7] = test system: J774A.1 cells infected with C. albicans (SC5314); assay: Macrophage killing assay; settings: 30 µM
HepG2-fLuc cells = assay: HepG2 / C. albicans co-culture: HepG2 survival by luminescence

Fc1ccc(-c2nc3cc(C(F)(F)F)ccn3c2-c2ccncc2)cc1 [Compound 1g]
Fungal selectivity (fold) [1]: 13 fold
IC50 [2]: 0.63 µM
remaining at 0.5 h, 1 µM [3]: 84%
IC50 (human CK1α): 8.4 µM
MIC80 (C. albicans (CaSS1)): > 100 µM
whole-cell antifungal activity against C. albicans (C. albicans (CaSS1)): loss of bioactivity

COc1ccn2c(-c3ccncc3)c(-c3ccc(F)cc3)nc2c1 [Compound 1b]
Fungal selectivity (fold) [1]: 3.9 fold
IC50 [2]: 0.26 µM
remaining at 0.5 h, 1 µM [3]: 2%
IC50 (human CK1α): 1 µM
MIC80 (C. albicans (CaSS1)): 50 µM (≈ 16 µg/mL)
whole-cell antifungal activity against C. albicans (C. albicans (CaSS1)): robust anti-C. albicans bioactivity

Fc1ccc(-c2nc3cc(F)ccn3c2-c2ccncc2)cc1 [Compound 1f]
C. albicans in co-culture relative to compound-free controls [4]: ~ 50%
remaining at 0.5 h, 1 µM [3]: 75%
filamentation of C. albicans [5]: inhibited filamentation
IC50 (human CK1α): 1.4 µM
reduction in MIC80 upon addition of caspofungin [6]: ≥ 4 fold
macrophage viability in co-culture [7]: restoring full viability
rescue of HepG2 viability (HepG2-fLuc cells; at or above 6.25 µM): partially rescued HepG2 viability
MIC80 (C. albicans (CaSS1)): 50 µM (≈ 15.4 µg/mL)
whole-cell antifungal activity against C. albicans (C. albicans (CaSS1)): robust anti-C. albicans bioactivity

CC(C)(C)c1ccn2c(-c3ccncc3)c(-c3ccc(F)cc3)nc2c1 [Compound 1c]
Fungal selectivity (fold) [1]: 8.6 fold
IC50 [2]: 0.7 µM
remaining at 0.5 h, 1 µM [3]: 67%
IC50 (human CK1α): 6.1 µM
MIC80 (C. albicans (CaSS1)): > 100 µM

Cc1ccn2nc(-c3ccc(F)cc3)c(-c3ccncc3)c2c1 [Compound 2f]
metabolic stability category [3]: unstable (compound concentration remaining in the microsomal suspension after incubation for 30 minutes was ≤ 50% of the starting concentration (1 μM))
remaining at 0.5 h, 1 µM [3]: 1%
IC50 (human CK1α): 2 µM

Fc1ccc(-c2nn3cc(F)ccc3c2-c2ccncc2)cc1 [Compound 2b]
filamentation of C. albicans [5]: inhibited filamentation
reduction in MIC80 upon addition of caspofungin [6]: ≥ 32 fold
macrophage viability in co-culture [7]: restoring full viability
concentrations giving mild reduction in HepG2 viability (HepG2-fLuc cells): > 12.5 µM
MIC80 (C. albicans (CaSS1)): 25 µM (≈ 7.68 µg/mL)
whole-cell antifungal activity against C. albicans (C. albicans (CaSS1)): robust anti-C. albicans bioactivity

Cc1ccn2c(-c3ccncc3)c(-c3ccc(F)cc3)nc2c1 [Compound 1a]
Fungal selectivity (fold) [1]: 2.6 fold
IC50 [2]: 0.63 µM
metabolic stability category [3]: unstable (compound concentration remaining in the microsomal suspension after incubation for 30 minutes was ≤ 50% of the starting concentration (1 μM))
remaining at 0.5 h, 1 µM [3]: 0%
IC50 (human CK1α): 1.7 µM
MIC80 (C. albicans (CaSS1)): > 100 µM

Fc1ccc(-c2nn3cc(C(F)(F)F)ccc3c2-c2ccncc2)cc1 [Compound 2c]
IC50 [2]: > 1 µM
CaYck2 IC50 [2]: above the maximum concentration tested
MIC80 (C. albicans (CaSS1)): > 100 µM
whole-cell antifungal activity against C. albicans (C. albicans (CaSS1)): little to no whole-cell antifungal activity; also recorded: loss of bioactivity

N#Cc1cccn2nc(-c3ccc(F)cc3)c(-c3ccncc3)c12 [Compound 2o]
IC50 [2]: > 1 µM
CaYck2 IC50 [2]: above the maximum concentration tested
IC50 (human CK1α): > 15 µM
whole-cell antifungal activity against C. albicans (C. albicans (CaSS1)): little to no whole-cell antifungal activity

Oc1ccc2c(-c3ccncc3)c(-c3ccc(F)cc3)nn2c1 [Compound 2e]
MIC80 (C. albicans (CaSS1)): > 100 µM
whole-cell antifungal activity against C. albicans (C. albicans (CaSS1)): no measurable whole-cell activity
